Measured values reported in patent publication US7491747B2, “Butyric acid derivatives” (Merck Patent GmbH, priority 2001, dated 2009).

Tests used:
[1] = system: vector expressing Gal4 alone; assay: Luciferase reporter control without PPAR ligand binding region in CV-1 cells; assay type: cell-based; details: in the presence of the product
Excerpt: CV-1 cells (monkey kidney cells) are co-transfected with an expression vector for the chimeric proteins PPARα-Gal4 or PPARγ-Gal4 and with a “reporter” plasmid which allows the expression of the luciferase gene placed under the control of a promoter containing Gal4 response elements. The cells are inoculated in 96-zwell microplates and co-transfected using a commercial reagent with the reporter plasmid (pG5-tk-pGL3) and the expression vector for the chimeric protein (PPARα-Gal4 or PPARγ-Gal4). After incubating for 4 hours, whole culture medium (containing 10% foetal calf serum) is added to the wells. After 24 hours, the medium is removed and replaced with whole medium containing the test products (50 μM final). The products are left in contact with the cells for 18 hours. The cells are then lysed and the ludferase activity is measured using a luminometer. A PPAR activation factor can then be calculated by means of the activation of the expression of the reporter gene induced by the product (relative to the control cells that have not received any product). […] In the absence of the binding region for the PPARα or γ ligand (vector expressing Gal4 alone), the luciferase activity measured in the presence of this product is zero.

[2] = molecular target: T1, chimeric protein PPARγ-Gal4 (Homo sapiens, UniProt P37231); assay: PPAR activation, Gal4 chimera luciferase reporter in co-transfected CV-1 cells; assay type: cell-based; details: 50 μM, 18 hours contact
T1 construct: Gal4 (fusion partner); expressed in transfected cells; host or cells: CV-1 cells (monkey kidney cells)
T1 sequence (P37231 238-503 limits assumed): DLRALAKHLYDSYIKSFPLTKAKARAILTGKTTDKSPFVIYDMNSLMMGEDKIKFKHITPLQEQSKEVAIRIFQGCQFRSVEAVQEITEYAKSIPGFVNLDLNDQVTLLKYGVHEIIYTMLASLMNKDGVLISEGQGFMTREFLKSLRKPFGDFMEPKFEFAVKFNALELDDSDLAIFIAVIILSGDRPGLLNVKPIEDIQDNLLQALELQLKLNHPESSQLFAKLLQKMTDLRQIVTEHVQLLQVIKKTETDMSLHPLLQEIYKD
Protocol: (§1) The measurement of the PPAR activation was performed according to a technique described by Lehmann et al. (1995, J. Biol. Chem. 270: 12953-12956).
(§2) CV-1 cells (monkey kidney cells) are co-transfected with an expression vector for the chimeric proteins PPARα-Gal4 or PPARγ-Gal4 and with a “reporter” plasmid which allows the expression of the luciferase gene placed under the control of a promoter containing Gal4 response elements.
(§3) The cells are inoculated in 96-zwell microplates and co-transfected using a commercial reagent with the reporter plasmid (pG5-tk-pGL3) and the expression vector for the chimeric protein (PPARα-Gal4 or PPARγ-Gal4). After incubating for 4 hours, whole culture medium (containing 10% foetal calf serum) is added to the wells. After 24 hours, the medium is removed and replaced with whole medium containing the test products (50 μM final). The products are left in contact with the cells for 18 hours. The cells are then lysed and the ludferase activity is measured using a luminometer. A PPAR activation factor can then be calculated by means of the activation of the expression of the reporter gene induced by the product (relative to the control cells that have not received any product).

[3] = molecular target: T2, chimeric protein PPARα-Gal4 (Homo sapiens, UniProt Q07869); assay: as above; assay type: cell-based; details: 50 μM, 18 hours contact
T2 construct: Gal4 (fusion partner); expressed in transfected cells; host or cells: CV-1 cells (monkey kidney cells)
T2 sequence (Q07869 239-466 limits assumed): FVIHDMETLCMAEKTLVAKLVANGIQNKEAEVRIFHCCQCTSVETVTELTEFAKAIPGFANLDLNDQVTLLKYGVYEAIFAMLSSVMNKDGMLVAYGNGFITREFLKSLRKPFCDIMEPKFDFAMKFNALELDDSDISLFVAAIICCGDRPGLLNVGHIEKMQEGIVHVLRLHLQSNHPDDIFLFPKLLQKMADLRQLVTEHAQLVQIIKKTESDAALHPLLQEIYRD
Protocol: as §1, §2, §3

db/db mice = assay: Antidiabetic and hypolipidaemiant activity, oral, in db/db mice; assay type: in vivo; details: oral 20 mg/kg/day for 15 days
Protocol: The antidiabetic and hypolipidaemiant activity of the compounds was determined orally in db/db mice.
16 week-old db/db mice are treated orally for 15 days with the compound of Example 5 (20 mg/kg/day). Each group studied comprises seven animals. After treatment for 15 days, retro-orbital samples are taken after a mild anaesthesia and fasting for 4 hours.
The following parameters were measured:
Glycaemia assay (glucose oxidase) and assay of the lipid parameters on the sera at D15 (COBAS): triglycerides, total cholesterol (CHOL), the HDL cholesterol (HDL-C) and the free fatty acids (FFA) (BioMérieux and Waco Chemicals assay kit).
The measurements given represent mean values±standard error.

[4] = serum D15, mean ± standard error

O=C(O)C(CCSc1ccccc1)Oc1ccc(C(F)(F)F)cc1 (centres unmarked) [Example 5, 4-phenylsulphanyl-2-(4-trifluoromethylphenoxy)butyric acid]
luciferase activity in the absence of the binding region for the PPARα or γ ligand [1]: zero
melting point: 108 to 110 °C
PPAR activation factor (reporter gene expression relative to control cells) [2]: six
PPAR activation factor (reporter gene expression relative to control cells) [3]: nine
CHOL, % variation relative to the control (db/db mice; D15, * p < 0.05 vs control): 47* %
FFA, % variation relative to the control (db/db mice; D15, * p < 0.05 vs control): −38* %
Glycaemia, % variation relative to the control (db/db mice; D15, * p < 0.05 vs control): −59* %
HDL-C, % variation relative to the control (db/db mice; D15, * p < 0.05 vs control): 36* %
Triglycerides, % variation relative to the control (db/db mice; D15, * p < 0.05 vs control): −47* %
Glycaemia (db/db mice; D15, fasting 4 hours, mean ± standard error): 11.1 ± 3.3 mM
CHOL (total cholesterol) (db/db mice; [4]): 5.4 ± 0.9 mM
FFA (free fatty acids) (db/db mice; [4]): 0.4 ± 0.0 mM
HDL-C (db/db mice; [4]): 4.3 ± 0.6 mM
Triglycerides (db/db mice; [4]): 0.7 ± 0.1 mM
